Reference: ChEMBL document CHEMBL3885861, “Open TG-GATES”

Species: Rattus norvegicus
Assay: Open TG-GATES - Regimen: Single
Format: toxicity, organism-based, Sprague-Dawley
Parameters: regimen Single, gender Male, age 6 weeks
Conditions: in vivo, ip, 0 mg/kg, route intraperitoneal injection, dose level Control; for APTT / Bas / Eos / Fbg / Hb / Ht / Lym / MCH / MCHC / MCV / Mono / Neu / PT / Plat / RBC / Ret / WBC: tissue Blood; for KIDNEY_L / KIDNEY_R / KIDNEY_TOTAL: tissue Kidney; for LIVER: tissue Liver; for A/G / ALP / ALT / AST / BUN / CRE / Ca / Cl / DBIL / GLC / IP / K / LDH / Na / PL / RALB / TBIL / TC / TG / TP / gamma-GTP: tissue Plasma

With N[C@H]1C(O)O[C@H](CO)[C@@H](O)[C@@H]1O (some centres not stated) [GLUCOSAMINE] the TERMINAL_BW (3 h) was 190.4 g, the APTT (3 h) was 17.1 s and the Bas (3 h) was 0.2%. The Eos (3 h) was 0.6%, the Fbg (3 h) was 273.4 mg/dL and the Hb (3 h) was 12.6 g/dL. It also gave a Ht (3 h) of 38.6%, a Lym (3 h) of 73.6% and an MCH (3 h) of 20.7 pg. For the same compound, the MCHC (3 h) was 32.7%, the MCV (3 h) was 63.4 fL and the Mono (3 h) was 3.8%. For the same compound, the Neu (3 h) was 20.2%, the PT (3 h) was 15.5 s and the Plat (3 h) was 111.6 x10_4/uL. For the same compound, the RBC (3 h) was 609.4 x10_4/ul, the Ret (3 h) was 9.4% and the WBC (3 h) was 98.5 x10_2/uL. It also gave a KIDNEY_L (3 h) of 0.9 g, a KIDNEY_R (3 h) of 0.9 g and a KIDNEY_TOTAL (3 h) of 1.7 g. For the same compound, the LIVER (3 h) was 8.4 g, the A/G (3 h) was 0.9 and the ALP (3 h) was 1386.8 IU/L. It also gave an ALT (3 h) of 42.2 IU/L, an AST (3 h) of 77 IU/L and a BUN (3 h) of 9.6 mg/dL. The CRE (3 h) was 0.2 mg/dL, the Ca (3 h) was 10.5 mg/dL and the Cl (3 h) was 106.4 meq/L. The DBIL (3 h) was 0.01 mg/dL, the GLC (3 h) was 175.4 mg/dL and the IP (3 h) was 9.4 mg/dL. It also gave a K (3 h) of 4.4 meq/L, an LDH (3 h) of 61.2 IU/L and a Na (3 h) of 142.2 meq/L. It also gave a PL (3 h) of 141.6 mg/dL, an RALB (3 h) of 2.4 g/dL and a TBIL (3 h) of 0.052 mg/dL. It also gave a TC (3 h) of 79.2 mg/dL, a TG (3 h) of 47.8 mg/dL and a TP (3 h) of 5.2 g/dL. For the same compound, the gamma-GTP (3 h) was 0.8 IU/L, the TERMINAL_BW (6 h) was 188.5 g and the APTT (6 h) was 18.8 s. It also gave a Bas (6 h) of 0.2%, an Eos (6 h) of 0% and a Fbg (6 h) of 298.6 mg/dL. The Hb (6 h) was 12.9 g/dL, the Ht (6 h) was 39.6% and the Lym (6 h) was 62.6%. It also gave an MCH (6 h) of 21.3 pg, an MCHC (6 h) of 32.6% and an MCV (6 h) of 65.5 fL. It also gave a Mono (6 h) of 2%, a Neu (6 h) of 34% and a PT (6 h) of 15.8 s. For the same compound, the Plat (6 h) was 113.1 x10_4/uL, the RBC (6 h) was 604.2 x10_4/ul and the Ret (6 h) was 9.4%. It also gave a WBC (6 h) of 79.2 x10_2/uL, a KIDNEY_L (6 h) of 0.8 g and a KIDNEY_R (6 h) of 0.8 g. It also gave a KIDNEY_TOTAL (6 h) of 1.6 g, an LIVER (6 h) of 7.8 g and an A/G (6 h) of 0.9. It also gave an ALP (6 h) of 1323.4 IU/L, an ALT (6 h) of 36.2 IU/L and an AST (6 h) of 70.2 IU/L. The BUN (6 h) was 8.2 mg/dL, the CRE (6 h) was 0.2 mg/dL and the Ca (6 h) was 10.3 mg/dL. It also gave a Cl (6 h) of 106.8 meq/L, a DBIL (6 h) of 0.008 mg/dL and a GLC (6 h) of 178.6 mg/dL. The IP (6 h) was 9.8 mg/dL, the K (6 h) was 4 meq/L and the LDH (6 h) was 51.8 IU/L. The Na (6 h) was 142.4 meq/L, the PL (6 h) was 144 mg/dL and the RALB (6 h) was 2.5 g/dL. The TBIL (6 h) was 0.052 mg/dL, the TC (6 h) was 82.8 mg/dL and the TG (6 h) was 41.4 mg/dL. The TP (6 h) was 5.3 g/dL, the gamma-GTP (6 h) was 1 IU/L and the TERMINAL_BW (9 h) was 185.1 g. The APTT (9 h) was 17 s, the Bas (9 h) was 0.2% and the Eos (9 h) was 0.8%. For the same compound, the Fbg (9 h) was 298.8 mg/dL, the Hb (9 h) was 13 g/dL and the Ht (9 h) was 40.1%. The Lym (9 h) was 66.6%, the MCH (9 h) was 21.2 pg and the MCHC (9 h) was 32.5%. It also gave an MCV (9 h) of 65.3 fL, a Mono (9 h) of 2.4% and a Neu (9 h) of 29.6%. The PT (9 h) was 15.7 s, the Plat (9 h) was 109.5 x10_4/uL and the RBC (9 h) was 615 x10_4/ul. For the same compound, the Ret (9 h) was 9.4%, the WBC (9 h) was 85.2 x10_2/uL and the KIDNEY_L (9 h) was 0.8 g. For the same compound, the KIDNEY_R (9 h) was 0.8 g, the KIDNEY_TOTAL (9 h) was 1.6 g and the LIVER (9 h) was 7.2 g. It also gave an A/G (9 h) of 0.9, an ALP (9 h) of 1439.4 IU/L and an ALT (9 h) of 37.6 IU/L. For the same compound, the AST (9 h) was 78 IU/L, the BUN (9 h) was 7.6 mg/dL and the CRE (9 h) was 0.2 mg/dL. For the same compound, the Ca (9 h) was 10.4 mg/dL, the Cl (9 h) was 107.4 meq/L and the DBIL (9 h) was 0.014 mg/dL. The GLC (9 h) was 157.4 mg/dL, the IP (9 h) was 10.3 mg/dL and the K (9 h) was 3.6 meq/L. For the same compound, the LDH (9 h) was 51.6 IU/L, the Na (9 h) was 143.2 meq/L and the PL (9 h) was 131.4 mg/dL. For the same compound, the RALB (9 h) was 2.5 g/dL, the TBIL (9 h) was 0.078 mg/dL and the TC (9 h) was 79.4 mg/dL. The TG (9 h) was 18.4 mg/dL, the TP (9 h) was 5.3 g/dL and the gamma-GTP (9 h) was 0.6 IU/L. It also gave a TERMINAL_BW (24 h) of 201.5 g, an APTT (24 h) of 17.2 s and a Bas (24 h) of 0.2%. For the same compound, the Eos (24 h) was 1.4%, the Fbg (24 h) was 293.6 mg/dL and the Hb (24 h) was 12.9 g/dL. It also gave a Ht (24 h) of 38.9%, a Lym (24 h) of 77.2% and an MCH (24 h) of 20.8 pg. For the same compound, the MCHC (24 h) was 33.1%, the MCV (24 h) was 62.6 fL and the Mono (24 h) was 2.8%. The Neu (24 h) was 17.2%, the PT (24 h) was 16.2 s and the Plat (24 h) was 117.8 x10_4/uL. It also gave an RBC (24 h) of 622.4 x10_4/ul, a Ret (24 h) of 8.9% and a WBC (24 h) of 96.4 x10_2/uL. The KIDNEY_L (24 h) was 0.9 g, the KIDNEY_R (24 h) was 0.9 g and the KIDNEY_TOTAL (24 h) was 1.8 g. The LIVER (24 h) was 9 g, the A/G (24 h) was 0.9 and the ALP (24 h) was 1430 IU/L. The ALT (24 h) was 39.8 IU/L, the AST (24 h) was 76.2 IU/L and the BUN (24 h) was 13.6 mg/dL. It also gave a CRE (24 h) of 0.2 mg/dL, a Ca (24 h) of 10.4 mg/dL and a Cl (24 h) of 105.8 meq/L. The DBIL (24 h) was 0.012 mg/dL, the GLC (24 h) was 185.2 mg/dL and the IP (24 h) was 8.3 mg/dL. It also gave a K (24 h) of 4.3 meq/L, an LDH (24 h) of 108.2 IU/L and a Na (24 h) of 142 meq/L. For the same compound, the PL (24 h) was 151.6 mg/dL, the RALB (24 h) was 2.5 g/dL and the TBIL (24 h) was 0.04 mg/dL. It also gave a TC (24 h) of 80.4 mg/dL, a TG (24 h) of 69.8 mg/dL and a TP (24 h) of 5.5 g/dL. The gamma-GTP (24 h) was 0.4 IU/L.
